Columns and labels:
[1] = tested on: pY641-STAT6 in Peripheral Blood Mononuclear Cells (PBMC); test: MSD-pSTAT-PBMC Assay (pSTAT6, IL-4 stimulated); type: cell-based, Human; conditions: compound 3 hrs, then 1 ng/mL IL-4 for 10 min
Procedure, shortened: (§1)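 Phospho-STAT readout used MSD electrochemiluminescence with total STAT3 or STAT6 capture in lysates of cryopreserved human PBMCs. Cells had 3 h compound exposure before a 10 min cytokine pulse: IL-6 10 ng/mL for pSTAT3, IL-4 1 ng/mL for pSTAT6. IC50 came from background-subtracted, DMSO-normalised signal, with categories A≤100 nM up to D>3 μM.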

[2] = tested on: pY705-STAT3 in Peripheral Blood Mononuclear Cells (PBMC); test: MSD-pSTAT-PBMC Assay (pSTAT3, IL-6 stimulated); type: cell-based, Human; conditions: compound 3 hrs, then 10 ng/mL IL-6 for 10 min
Procedure, shortened: as §1

Row | Compound | IC50 ([1]; Homo sapiens) [µM] | IC50 ([2]; Homo sapiens) [µM] | IC50 [1] [µM] | IC50 [2] [µM]
1 | CC(=O)N1CC[C@H]2CC[C@@H](C(=O)N(C)c3ccc(OCCN(C)C)cc3)N2C(=O)[C@@H](NC(=O)c2cc3cc(C(F)(F)P(=O)(OCOC(=O)C(C)(C)C)OCOC(=O)C(C)(C)C)ccc3s2)C1 [Compound 327, ((((2-(((5S,8S, 10aR)-3-acetyl-8-((4-(2-(dimethyl-amino)ethoxy)phenyl) (methyl)carbamoyl)-6-oxodecahydro-pyrrolo[1,2-a][1,5]diazocin-5-yl)carbamoyl)benzo[b]thiophen-5-yl)difluoro-methyl)phos-phoryl)bis(oxy)) bis(methylene) bis(2,2-dimethylpro-panoate)] | > 3 | > 3 |  | 
2 | CNC(=O)[C@@H]1CC[C@@H]2CCN(C(=O)c3n[nH]c4ccc(C)cc34)C[C@H](NC(=O)c3ccc4ccc(C(F)(F)P(=O)(OCOC(=O)OC(C)C)OCOC(=O)OC(C)C)cc4c3)C(=O)N21 [Compound 328, (((difluoro(7-(((5S,8S,10aR)-3-(5-methyl-1H-indazole-3-carbonyl)-8-(methylcarbamoyl)-6-oxodecahydro-pyrrolo[1,2-a][1,5]diazocin-5-yl)carbamoyl)naphthalen-2-yl)methyl)phosphoryl)bis(oxy))bis(methylene) diisopropylbis(carbonate)] | 0.1 to 1 | > 3 |  | 
3 | CNC(=O)[C@@H]1CC[C@@H]2CCN(C(=O)c3n[nH]c4ccc(C)cc34)C[C@H](NC(=O)c3ccc4ccc(C(F)(F)P(=O)(OCCSC(=O)CC(C)C)OCCSC(=O)CC(C)C)cc4c3)C(=O)N21 [Compound 329, S,S′-((((difluoro(7-(((5S,8S,10aR)-3-(5-methyl-1H-indazole-3-carbonyl)-8-(methylcarbamoyl)-6-oxodecahydropyrrolo[1,2-a][1,5]diazocin-5-yl)carbamoyl)naphthalen-2-yl)methyl)phosphoryl)bis(oxy))bis(ethane-2,1-diyl)) bis(3-methylbutanethioate)] | ≤ 0.1 | 1 to 3 |  | 
4 | Cc1ccc2[nH]nc(C(=O)N3CC[C@H]4CC[C@@H](C(=O)N(C)C)N4C(=O)[C@@H](NC(=O)c4ccc5ccc(C(F)(F)P(=O)(OCCSC(=O)CC(C)C)OCCSC(=O)CC(C)C)cc5c4)C3)c2c1 [Compound 331, S,S′-(((((7-(((5S,8S,10aR)-8-(dimethylcarbamoyl)-3-(5-methyl-1H-indazole-3-carbonyl)-6-oxodecahydropyrrolo[1,2-a][1,5]diazocin-5-yl)carbamoyl)naphthalen-2-yl)difluoromethyl)phosphoryl)bis(oxy))bis(ethane-2,1-diyl))bis(3-methylbutanethioate)] | ≤ 0.1 | > 3 |  | 
5 | CCCC(=O)SCCOP(=O)(OCCSC(=O)CCC)C(F)(F)c1ccc2ccc(C(=O)N[C@H]3CN(C(C)=O)CC[C@H]4CC[C@@H](C(=O)N5CC(c6cc[nH]c(=O)c6)CC56CC6)N4C3=O)cc2c1 (stereo partly drawn) [Compound 332, S,S′-(((((7-(((5S,8S,10aR)-3-acetyl-6-oxo-8-(6-(2-oxo-1,2-dihydropyridin-4-yl)-4-azaspiro[2.4]heptane-4-carbonyl)decahydropyrrolo[1,2-a][1,5]diazocin-5-yl)carbamoyl)naphthalen-2-yl)difluoromethyl)phosphoryl)bis(oxy))bis(ethane-2,1-diyl))dibutanethioate] | ≤ 0.1 | > 3 |  | 
6 | CCCC(=O)SCCOP(=O)(OCOC(=O)OC(C)C)C(F)(F)c1ccc2ccc(C(=O)N[C@H]3CCN(CC(F)F)C[C@H]4CC[C@@H](C(=O)N5CC(c6cc[nH]c(=O)c6)CC56CC6)N4C3=O)cc2c1 (stereo partly drawn) [Compound 334, S-(2-((((7-(((5S,8S,10aR)-2-(2,2-difluoroethyl)-6-oxo-8-(6-(2-oxo-1,2-dihydropyridin-4-yl)-4-azaspiro[2.4]heptane-4-carbonyl)decahydropyrrolo[1,2-a][1,4]diazocin-5-yl)carbamoyl)naphthalen-2-yl)difluoromethyl) (((isopropoxycarbonyl)oxy)methoxy)phosphoryl)oxy)ethyl)butanethioate] | ≤ 0.1 | 0.1 to 1 |  | 
7 | CCCC(=O)SCCOP(=O)(OCCSC(=O)CCC)C(F)(F)c1ccc2ccc(C(=O)N[C@H]3CCN(CC(F)F)C[C@H]4CC[C@@H](C(=O)N5CC(c6cc[nH]c(=O)c6)CC56CC6)N4C3=O)cc2c1 (stereo partly drawn) [Compound 335, S,S′-(((((7-(((5S,8S,10aR)-2-(2,2-difluoroethyl)-6-oxo-8-(6-(2-oxo-1,2-dihydropyridin-4-yl)-4-azaspiro[2.4]heptane-4-carbonyl)decahydropyrrolo [1,2-a][1,4]diazocin-5-yl)carbamoyl)naphthalen-2-yl)difluoromethyl)phosphoryl)bis(oxy))bis(ethane-2,1-diyl))dibutanethioate] | ≤ 0.1 | 1 to 3 |  | 
8 | Cc1ccc2[nH]nc(C(=O)N3CC[C@H]4CC[C@@H](C(=O)N(C)C)N4C(=O)[C@@H](NC(=O)c4cc5cc(CP(=O)(N[C@@H](C)C(=O)OC(C)C)Oc6ccccc6)ccc5s4)C3)c2c1 (stereo partly drawn) [Compound 337, isopropyl(((2-(((5S,8S,10aR)-8-(dimethylcarbamoyl)-3-(5-methyl-1H-indazole-3-carbonyl)-6-oxodecahydropyrrolo[1,2-a][1,5]diazocin-5-yl)carbamoyl)benzo [b]thiophen-5-yl)methyl)(phenoxy)phosphoryl)-L-alaninate] | > 3 | > 3 |  | 
9 | CC(C)(C)C(=O)OCOP(=O)(OCOC(=O)C(C)(C)C)C(F)(F)c1ccc2ccc(C(=O)NC3CN(CC(F)F)CCC4CCC(C(=O)N5CC(C#N)C(c6cc(F)cc(F)c6)C5)N4C3=O)cc2c1 [Compound 344, ((((7-(((5S,8S,10aR)-8-((rel-trans)-3-cyano-4-(3,5-difluorophenyl)pyrrolidine-1-carbonyl)-3-(2,2-difluoroethyl)-6-oxodecahydropyrrolo[1,2-a][1,5]diazocin-5-yl)carbamoyl)naphthalen-2-yl)difluoromethyl)phosphoryl)bis(oxy)) bis(methylene) bis(2,2-dimethylpropanoate)] |  |  | 0.1 to 1 | 1 to 3
10 | CC(C)(C)C(=O)OCOP(=O)(OCOC(=O)C(C)(C)C)C(F)(F)c1ccc2ccc(C(=O)NC3CN(CC(F)F)CCC4CCC(C(=O)N5CCC(c6ccccc6)C(C#N)C5)N4C3=O)cc2c1 [Compound 345, ((((7-(((5S,8S,10aR)-8-((rel-trans)-3-cyano-4-phenylpiperidine-1-carbonyl)-3-(2,2-difluoroethyl)-6-oxodecahydropyrrolo[1,2-a][1,5]diazocin-5-yl)carbamoyl)naphthalen-2-yl)difluoromethyl)phosphoryl)bis(oxy)) bis(methylene) bis(2,2-dimethylpropanoate)] |  |  | 0.1 to 1 | 1 to 3
11 | CCCC(=O)SCCOP(=O)(OCCSC(=O)CCC)C(F)(F)c1ccc2ccc(C(=O)N[C@H]3CN(CC(F)F)CC[C@H]4CC[C@@H](C(=O)N(C)C5CCN(S(C)(=O)=O)CC5)N4C3=O)cc2c1 [Compound 347, S,S′-(((((7-(((5S,8S,10aR)-3-(2,2-difluoroethyl)-8-(methyl(1-(methylsulfonyl)piperidin-4-yl)carbamoyl)-6-oxodeca hydropyrrolo[1,2-a][1,5]diazocin-5-yl)carbamoyl)naphthalen-2-yl)difluoromethyl)phosphoryl)bis(oxy))bis(ethane-2,1-diyl))dibutanethioate] | 0.1 to 1 | 0.1 to 1 |  | 
12 | CC(C)(C)C(=O)OCOP(=O)(OCOC(=O)C(C)(C)C)C(F)(F)c1ccc2sc(C(=O)N[C@H]3CN(CC(F)F)CC[C@H]4CC[C@@H](C(=O)N5CC(C(=O)N6CCOCC6)C5)N4C3=O)cc2c1 [Compound 350, ((((2-(((5S,8S,10aR)-3-(2,2-difluoroethyl)-8-(3-(morpholine-4-carbonyl)azetidine-1-carbonyl)-6-oxodecahydropyrrolo[1,2-a][1,5]diazocin-5-yl)carbamoyl)benzo[b]thiophen-5-yl)difluoromethyl)phosphoryl)bis (oxy))bis(methylene) bis(2,2-dimethylpropanoate)] |  | ≤ 0.1 | 0.1 to 1 | 
13 | CC(C)(C)C(=O)OCOP(=O)(OCOC(=O)C(C)(C)C)C(F)(F)c1ccc2sc(C(=O)N[C@H]3CN(CC(F)F)CC[C@H]4CC[C@@H](C(=O)N5CC(C(=O)N6CCOCC6)C5)N4C3=O)cc2c1 [Compound 351, ((((2-(((5S,8S,10aR)-3-(2,2-difluoroethyl)-8-(3-(morpholine-4-carbonyl)azetidine-1-carbonyl)-6-oxodecahydropyrrolo[1,2-a][1,5]diazocin-5-yl)carbamoyl)benzo[b]thiophen-5-yl)difluoromethyl)phosphoryl)bis (oxy))bis(methylene) bis(2,2-dimethylpropanoate)] |  |  | 1 to 3 | ≤ 0.1
14 | CN(CC(C)(C)C#N)C(=O)[C@@H]1CC[C@@H]2CCN(CC(F)F)C[C@H](NC(=O)c3cc4cc(C(F)(F)P(=O)(OCOC(=O)C(C)(C)C)OCOC(=O)C(C)(C)C)ccc4s3)C(=O)N21 [Compound 352, ((((2-(((5S,8S,10aR)-8-((2-cyano-2-methylpropyl)(methyl)carbamoyl)-3-(2,2-difluoroethyl)-6-oxodecahydropyrrolo[1,2-a][1,5]diazocin-5-yl)carbamoyl)benzo[b]thiophen-5-yl)difluoromethyl)phosphoryl)bis (oxy))bis(methylene) bis(2,2-dimethylpropanoate)] | ≤ 0.1 | ≤ 0.1 |  | 
15 | CCN1CC[C@H]2CC[C@@H](C(=O)N3CC(C(=O)N4CCOCC4)C3)N2C(=O)[C@@H](NC(=O)c2cc3cc(C(F)(F)P(=O)(OCOC(=O)C(C)(C)C)OCOC(=O)C(C)(C)C)ccc3s2)C1 [Compound 353, ((((2-(((5S,8S,10aR)-3-ethyl-8-(3-(morpholine-4-carbonyl)azetidine-1-carbonyl)-6-oxodecahydropyrrolo[1,2-a][1,5]diazocin-5-yl)carbamoyl)benzo[b]thiophen-5-yl)difluoromethyl)phosphoryl)bis(oxy)) bis(methylene) bis(2,2-dimethylpropanoate)] | > 3 | ≤ 0.1 |  | 
